Assay results taken from patent US5151432A, “Substituted amino acid compounds” (Adir et Compagnie, priority 1989, dated 1992).

What was measured:
[1] = biological target: angiotensin I converting enzyme (Homo sapiens, UniProt P12821); test: Inhibitory effects on angiotensin I converting enzyme in vitro (conversion of hippurylhistidylleucine to hippuric acid, RYAN method); assay type: biochemical; details: substrate HHL
Experimental: The activity of the converting enzyme is determined in vitro according to the method of RYAN J. W. et al. (Biochem. J., 1977, 167, 501-504), which utilizes the reaction of conversion of hippurylhistidylleucine (HHL) to hippuric acid. The latter is assayed by liquid scintillation after extraction with ethyl acetate. The inhibitory effect of a compound is determined by incubation at different doses in the presence of the substrate and the converting enzyme. The results are expressed as the IC50 of these compounds.

[2] = tested on: amnesic scopolamine-treated animals (scopolamine-induced amnesia); test: Promnesic effects: one trial-passive avoidance test in rats with scopolamine-induced amnesia; assay type: in vivo, Male OFA rats (Iffa-Credo); details: for % Retention at 300 sec. / Latency of transit: 24 h retention
Description: Male OFA rats (Iffa-Credo) weighting 210-240 g are placed in individual cages under standard environmental conditions. The memory test is a test of one trial-passive avoidance in which experimental amnesia is induced by prior injection of scopolamine.
The apparatus consists of a two-compartment enclosure separated by an automatically closing door.
On the day of conditioning, each animal is placed during 60 seconds in the aversive compartment (white, brightly lit).
Then the door is rapidly open and the rat can freely enter the compartment where it feels secure (black and dark). Transit thereto triggers closing of the door, followed by application to the animal of an unescapable electric shock via the floor of the dark compartment (0.6 mA; 3 seconds).
Memory retention is measured 24 hours later under the same conditions. For this purpose, the latency of transit to the black compartment is measured and the maximum observation time is set at 300 seconds.
The memory enhancing effect of the compounds under investigation is measured in animals receiving scopolamine. These compounds are administered I.P. twice daily during the 3 days preceding the memory test, and then 1 hour before the conditioning test (i.e. 30 minutes before the scopolamine).
The promnesic effects of the compounds increase the transit time relative to the amnesic animals.
The compounds of the present invention are compared to oxiracetam, the nootropic agent most recently proposed in the therapy of memory disorders.

Sequence of angiotensin I converting enzyme (P12821 30-1306): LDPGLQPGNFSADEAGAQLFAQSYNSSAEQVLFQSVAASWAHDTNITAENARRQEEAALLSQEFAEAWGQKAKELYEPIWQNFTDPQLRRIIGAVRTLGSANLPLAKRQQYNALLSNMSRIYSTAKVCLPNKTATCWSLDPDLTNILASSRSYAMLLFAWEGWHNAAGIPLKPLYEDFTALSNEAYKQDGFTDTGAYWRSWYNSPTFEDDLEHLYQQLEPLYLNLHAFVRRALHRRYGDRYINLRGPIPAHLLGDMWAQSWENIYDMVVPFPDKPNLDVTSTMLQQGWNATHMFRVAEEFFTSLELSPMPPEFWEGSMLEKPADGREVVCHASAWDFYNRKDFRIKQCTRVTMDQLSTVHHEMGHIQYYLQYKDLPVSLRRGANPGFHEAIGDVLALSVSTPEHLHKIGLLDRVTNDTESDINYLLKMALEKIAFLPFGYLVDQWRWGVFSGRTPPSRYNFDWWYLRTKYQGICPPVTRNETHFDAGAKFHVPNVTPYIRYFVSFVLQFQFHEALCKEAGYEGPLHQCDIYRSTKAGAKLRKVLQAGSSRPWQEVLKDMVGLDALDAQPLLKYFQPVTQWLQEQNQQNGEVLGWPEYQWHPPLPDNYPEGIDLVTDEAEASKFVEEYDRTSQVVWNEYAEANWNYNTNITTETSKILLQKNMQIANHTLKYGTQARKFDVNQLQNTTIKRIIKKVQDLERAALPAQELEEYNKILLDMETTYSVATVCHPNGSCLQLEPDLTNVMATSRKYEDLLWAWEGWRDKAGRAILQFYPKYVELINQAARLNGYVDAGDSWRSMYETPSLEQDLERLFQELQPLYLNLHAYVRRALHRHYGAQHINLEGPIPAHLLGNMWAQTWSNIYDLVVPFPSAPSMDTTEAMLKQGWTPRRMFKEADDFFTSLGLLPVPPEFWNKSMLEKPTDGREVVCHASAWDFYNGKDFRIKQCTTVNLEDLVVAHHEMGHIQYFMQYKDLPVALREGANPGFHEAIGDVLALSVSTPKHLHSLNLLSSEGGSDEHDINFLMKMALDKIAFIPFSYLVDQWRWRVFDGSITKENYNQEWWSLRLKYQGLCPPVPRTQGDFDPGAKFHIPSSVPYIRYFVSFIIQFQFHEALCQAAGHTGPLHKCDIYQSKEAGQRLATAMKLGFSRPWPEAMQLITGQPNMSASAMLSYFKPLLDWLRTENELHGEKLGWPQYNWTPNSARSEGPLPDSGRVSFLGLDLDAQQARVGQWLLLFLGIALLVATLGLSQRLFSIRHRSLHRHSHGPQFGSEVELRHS

IC50 [1] | SMILES | % Retention at 300 sec. ([2]; 0.003 mg/kg I.P.) | Latency of transit ([2]; 0.003 mg/kg I.P.) | % Retention at 300 sec. ([2]; 0.01 mg/kg I.P.) | Latency of transit ([2]; 0.01 mg/kg I.P.) | % Retention at 300 sec. ([2]; 0.03 mg/kg I.P.) | Latency of transit ([2]; 0.03 mg/kg I.P.) | % Retention at 300 sec. ([2]; 0.1 mg/kg I.P.) | Latency of transit ([2]; 0.1 mg/kg I.P.) | % Retention at 300 sec. ([2]; 0.3 mg/kg I.P.) | Latency of transit ([2]; 0.3 mg/kg I.P.) | % Retention at 300 sec. ([2]; 1 mg/kg I.P.) | Latency of transit ([2]; 1 mg/kg I.P.) | % Retention at 300 sec. ([2]; 3 mg/kg I.P.) | Latency of transit ([2]; 3 mg/kg I.P.) | other results
50 nM | CCC[C@H](N[C@@H](C)C(=O)N1C2CCC(CC2)[C@H]1C(N)=O)C(=O)O [Example 2, (3S)-2-{(S)-2-[(S)-1-CARBOXYBUTYLAMINO]-PROPIONYL}-3-CARBAMOYL-2-AZABICYCLO-[2.2.2]OCTANE] |  |  |  |  |  |  |  |  |  |  |  |  |  |  | 
 | CCC[C@H](N[C@@H](C)C(=O)N1C2CCC(CC2)[C@H]1C(N)=O)C(N)=O [Example 3, (3S)-2-{(S)-2-[(S)-1-CARBAMOYLBUTYL-AMINO]PROPIONYL}-3-CARBAMOYL-2-AZABICYCLO[2.2.2]OCTANE] | 5% | 108.2 s | 10% | 119.3 s | 35% | 166.4 s | 45% | 171.6 s | 40% | 182.6 s | 20% | 125.2 s | 10% | 121.3 s | 
 | CCCCCCCCOC(=O)[C@@H]1C2CCC(CC2)N1C(=O)[C@H](C)N[C@@H](CCC)C(N)=O [Example 4, (3S)-2-{(S)-2-[(S)-1-CARBAMOYLBUTYLAMINO]PROPIONYL}-2-AZABICYCLO[2.2.2]-OCTANE-3-CARBOXYLIC ACID n-OCTYL ESTER] | 10% | 115.6 s | 30% | 149.3 s | 50% | 205.1 s | 55% | 207.2 s | 40% | 202.1 s | 40% | 171.5 s | 5% | 106.7 s | 
18 nM | NCCCC[C@H](N[C@@H](CCc1ccccc1)C(=O)O)C(=O)N1C2CCC(CC2)[C@H]1C(N)=O [Example 8, (3S)-2-{(S)-2-[(S)-1-CARBOXY-3-PHENYLPROPYLAMINO]-6-AMINOHEXANOYL}-3-CARBAMOYL-2-AZABICYCLO[2.2.2]OCTANE] |  |  |  |  |  |  |  |  |  |  |  |  |  |  | 
 | NC(=O)CN1CC(O)CC1=O (stereo not drawn) [OXIRACETAM, oxiracetam, reference compound] |  |  |  |  |  |  |  |  |  |  | 10% | 97.4 s | 10% | 126.5 s | % Retention at 300 sec. ([2]; 10 mg/kg I.P.): 5%; Latency of transit ([2]; 10 mg/kg I.P.): 115.3 s; % Retention at 300 sec. ([2]; 30 mg/kg I.P.): 30%; Latency of transit ([2]; 30 mg/kg I.P.): 150.1 s; % Retention at 300 sec. ([2]; 100 mg/kg I.P.): 40%; Latency of transit ([2]; 100 mg/kg I.P.): 182.5 s; % Retention at 300 sec. ([2]; 300 mg/kg I.P.): 45%; Latency of transit ([2]; 300 mg/kg I.P.): 200.2 s; % Retention at 300 sec. ([2]; 1000 mg/kg I.P.): 30%; Latency of transit ([2]; 1000 mg/kg I.P.): 175.8 s; minimal effective dose ([2]; Rattus norvegicus, ip, I.P., minimal active dose, read-out: dose with protective effect (scopolamine-induced amnesia)): ≥ 30 mg/kg
